US20250049929A1, “NOVEL TETRAHYDROQUINOLINES AND PROTEOLYSIS TARGETING CHIMERA (PROTACS) COMPRISING THEM AS DEGRADERS OF SMARCA” (Boehringer Ingelheim International GmbH, priority 2021, published 2025)

Assays:
SMARCA2 = target: T1, SMARCA2 (Homo sapiens, UniProt P51531); assay: SMARCA2 degradation analysis by imaging in RKO cells (DC50 A2); assay type: cell-based; conditions: tables 69, 70, 73, 76-78
T1 construct: endogenous in cells; host or cells: RKO cells (CRL-2577, ATCC)
Method: (§1) Determination of SMARCA2 and SMARCA4 Degradation (DC50 A2 and A4 [nM])
(§2) Protein Degradation Assays for SMARCA2 and SMARCA4
(§3) For degradation analysis by imaging, 1250 RKO cells (CRL-2577, ATCC) per well were seeded into 60 μL DMEM (Sigma Aldrich) supplemented with 10% FBS (Hyclone) in 384-well flat bottom plates (CellCarrier Ultra, Perkin Elmer) and incubated at 37° C. and 5% CO2 in a humidified atmosphere overnight. Compounds were added the next day using an Access Labcyte Workstation with a Labcyte Echo 550 or 555 acoustic dispenser and incubated with the cells for 4 or 24 h. Cells were fixed by adding 25 μL fixation buffer (7.4% formaldehyde (Sigma Aldrich F8775), 0.2% Triton TX100 (Sigma Aldrich F93443) in PBS) for 15 minutes at room temperature. After aspirating the fixing solution, the cells were washed once with 25 μL PBS and 25 μL of Blocking Buffer (10% Goat Serum in PBS) were added to each well and incubated for 30 minutes. Cells were washed with PBS and incubated with 20 μL mouse anti-Smarca4 (BRG1) antibody (Cell Signaling #52251) or rabbit anti-Smarca2 (BRM) antibody (Sigma Aldrich HPA029981) in blocking solution (PBS with 10% FCS) for ca. 2-4 h at RT. For detection of the nuclei, 25 μL of 5 μg/mL Hoechst 33342 (stock 10 mg/mL in H2O; Invitrogen H1399) were added together with Alexa Fluor 647 goat anti-mouse IgG (Invitrogen A-21235) or Alexa Fluor 488 goat anti-rabbit IgG (Invitrogen A-11034) in blocking solution and incubated for 60 min at RT. The cell layer was washed with 25 μL PBS, the wells were filled with 25 μL PBS and the plates sealed with an adhesive sheet. The mean intensity at 488 or 647 nm in the nucleus was measured using an Opera Phenix Plus High-Content Screening System (Perkin Elmer), values were normalized to the background and DMSO control and DC50 values were calculated and analyzed using a four-parametric logistic model.

SMARCA4 = target: T2, SMARCA4 (Homo sapiens, UniProt P51532); assay: SMARCA4 degradation analysis by imaging in RKO cells (DC50 A4); assay type: cell-based; conditions: tables 69, 70, 73, 76-78
T2 construct: endogenous in cells; host or cells: RKO cells (CRL-2577, ATCC)
T2 sequence (P51532 whole entry): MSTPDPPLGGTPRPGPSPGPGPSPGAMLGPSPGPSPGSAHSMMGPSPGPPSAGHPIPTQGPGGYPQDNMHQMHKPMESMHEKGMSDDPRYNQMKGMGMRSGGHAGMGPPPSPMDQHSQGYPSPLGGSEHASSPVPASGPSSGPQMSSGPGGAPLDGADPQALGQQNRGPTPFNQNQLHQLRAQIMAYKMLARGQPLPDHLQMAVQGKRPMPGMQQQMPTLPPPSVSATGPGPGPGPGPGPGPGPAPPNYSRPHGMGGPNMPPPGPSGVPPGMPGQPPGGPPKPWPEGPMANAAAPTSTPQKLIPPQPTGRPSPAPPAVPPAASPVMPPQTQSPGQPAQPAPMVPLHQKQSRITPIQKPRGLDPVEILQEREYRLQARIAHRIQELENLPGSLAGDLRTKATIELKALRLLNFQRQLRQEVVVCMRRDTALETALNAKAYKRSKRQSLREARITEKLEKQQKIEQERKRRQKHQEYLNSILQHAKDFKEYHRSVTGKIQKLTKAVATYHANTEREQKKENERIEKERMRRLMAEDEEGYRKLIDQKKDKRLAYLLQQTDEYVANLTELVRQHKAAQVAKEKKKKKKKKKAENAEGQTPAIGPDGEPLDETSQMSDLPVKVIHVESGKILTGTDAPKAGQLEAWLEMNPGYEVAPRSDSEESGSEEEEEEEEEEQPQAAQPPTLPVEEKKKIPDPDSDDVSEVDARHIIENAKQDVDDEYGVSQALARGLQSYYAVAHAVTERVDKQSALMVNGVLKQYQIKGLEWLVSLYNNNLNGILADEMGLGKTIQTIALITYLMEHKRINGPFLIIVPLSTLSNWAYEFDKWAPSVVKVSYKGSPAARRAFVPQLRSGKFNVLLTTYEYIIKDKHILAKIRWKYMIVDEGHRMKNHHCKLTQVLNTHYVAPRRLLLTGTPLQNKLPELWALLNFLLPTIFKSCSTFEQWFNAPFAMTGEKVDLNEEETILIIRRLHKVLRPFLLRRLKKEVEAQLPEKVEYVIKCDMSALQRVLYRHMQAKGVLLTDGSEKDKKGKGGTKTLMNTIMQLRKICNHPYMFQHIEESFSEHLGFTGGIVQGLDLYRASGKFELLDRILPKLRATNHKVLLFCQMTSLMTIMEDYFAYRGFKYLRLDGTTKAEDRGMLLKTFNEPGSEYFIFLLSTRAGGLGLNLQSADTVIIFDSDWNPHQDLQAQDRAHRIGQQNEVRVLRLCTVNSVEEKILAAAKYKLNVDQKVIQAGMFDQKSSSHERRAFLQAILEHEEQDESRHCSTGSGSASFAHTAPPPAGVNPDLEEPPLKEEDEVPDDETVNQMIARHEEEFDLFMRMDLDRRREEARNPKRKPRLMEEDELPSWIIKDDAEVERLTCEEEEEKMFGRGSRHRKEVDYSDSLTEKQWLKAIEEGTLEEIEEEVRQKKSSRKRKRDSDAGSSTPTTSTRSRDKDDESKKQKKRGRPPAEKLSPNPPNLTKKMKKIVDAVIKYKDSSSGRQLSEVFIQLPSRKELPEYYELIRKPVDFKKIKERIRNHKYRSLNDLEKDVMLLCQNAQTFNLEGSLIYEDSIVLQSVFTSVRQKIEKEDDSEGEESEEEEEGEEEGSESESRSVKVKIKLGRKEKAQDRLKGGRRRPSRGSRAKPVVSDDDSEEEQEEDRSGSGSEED
Method: as §1, §2, §3

T1 sequence (P51531 whole entry): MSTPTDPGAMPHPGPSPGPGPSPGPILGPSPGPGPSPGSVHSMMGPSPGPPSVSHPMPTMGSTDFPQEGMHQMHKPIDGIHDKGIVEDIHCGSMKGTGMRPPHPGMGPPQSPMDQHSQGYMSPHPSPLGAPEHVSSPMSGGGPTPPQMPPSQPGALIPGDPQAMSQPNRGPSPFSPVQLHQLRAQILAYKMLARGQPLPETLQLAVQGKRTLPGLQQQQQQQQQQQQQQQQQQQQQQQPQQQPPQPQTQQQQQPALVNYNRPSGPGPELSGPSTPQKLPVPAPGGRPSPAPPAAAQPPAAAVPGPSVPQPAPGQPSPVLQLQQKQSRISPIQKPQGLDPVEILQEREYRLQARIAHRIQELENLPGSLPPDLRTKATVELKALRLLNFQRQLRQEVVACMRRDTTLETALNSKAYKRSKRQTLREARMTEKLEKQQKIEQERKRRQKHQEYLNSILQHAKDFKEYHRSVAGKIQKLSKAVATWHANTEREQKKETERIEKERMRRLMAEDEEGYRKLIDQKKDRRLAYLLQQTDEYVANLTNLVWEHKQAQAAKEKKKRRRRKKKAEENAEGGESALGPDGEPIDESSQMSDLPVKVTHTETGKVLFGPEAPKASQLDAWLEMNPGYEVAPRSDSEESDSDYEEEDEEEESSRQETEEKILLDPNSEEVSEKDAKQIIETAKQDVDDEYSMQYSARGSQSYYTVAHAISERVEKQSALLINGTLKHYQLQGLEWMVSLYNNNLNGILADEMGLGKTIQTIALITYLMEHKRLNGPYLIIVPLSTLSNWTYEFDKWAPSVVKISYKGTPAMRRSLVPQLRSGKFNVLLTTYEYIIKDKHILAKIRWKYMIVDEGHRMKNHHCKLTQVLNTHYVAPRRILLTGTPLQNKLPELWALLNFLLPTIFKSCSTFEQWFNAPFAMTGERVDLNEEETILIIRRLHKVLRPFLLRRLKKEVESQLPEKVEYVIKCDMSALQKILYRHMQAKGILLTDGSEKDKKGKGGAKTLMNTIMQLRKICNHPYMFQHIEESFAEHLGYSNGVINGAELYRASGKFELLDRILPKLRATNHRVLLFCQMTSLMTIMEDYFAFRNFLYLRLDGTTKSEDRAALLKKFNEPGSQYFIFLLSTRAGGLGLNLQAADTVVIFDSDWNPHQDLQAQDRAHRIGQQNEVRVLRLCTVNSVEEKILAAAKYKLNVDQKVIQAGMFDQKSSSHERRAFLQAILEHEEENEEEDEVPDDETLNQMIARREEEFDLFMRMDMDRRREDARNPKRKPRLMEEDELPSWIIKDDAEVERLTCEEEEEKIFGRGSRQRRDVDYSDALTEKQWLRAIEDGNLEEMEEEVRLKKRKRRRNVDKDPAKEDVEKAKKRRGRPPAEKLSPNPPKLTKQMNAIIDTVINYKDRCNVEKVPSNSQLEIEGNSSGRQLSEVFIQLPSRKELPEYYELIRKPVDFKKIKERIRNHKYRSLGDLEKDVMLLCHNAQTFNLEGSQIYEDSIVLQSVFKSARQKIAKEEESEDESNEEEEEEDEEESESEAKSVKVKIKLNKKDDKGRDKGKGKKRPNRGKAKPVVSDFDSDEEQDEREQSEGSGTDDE

DC50 (SMARCA2) [nM]	DC50 (SMARCA4) [nM]	Compound
11	64	Cc1ncsc1-c1ccc([C@H](COCCN2CCC(c3ccc4c(c3)n(C3CCCC3)c3nc(=O)c5c(Br)cccc5n43)CC2)NC(=O)[C@@H]2C[C@@H](O)CN2C(=O)[C@@H](NC(=O)C2(C3CC3)CC2)C(C)(C)C)cc1 [Compound 42bd]
12	67	Cc1ncsc1-c1ccc([C@H](COCCN2CCC(c3ccc4c(c3)n(C3CCCC3)c3nc(=O)c5c(Br)cccc5n43)CC2)NC(=O)[C@@H]2C[C@@H](O)CN2C(=O)[C@@H](NC(=O)C2(C#N)CC2)C(C)(C)C)cc1 [Compound 42be]
8	87	COC(=O)C1(C(=O)N[C@H](C(=O)N2C[C@H](O)C[C@H]2C(=O)N[C@@H](COCCN2CCC(c3ccc4c(c3)n(C3CCCC3)c3nc(=O)c5c(Br)cccc5n43)CC2)c2ccc(-c3scnc3C)cc2)C(C)(C)C)CC1 [Compound 42bf]
6	153	Cc1ncsc1-c1ccc([C@H](COCCN2CCC(c3ccc4c(c3)n(C3CCCC3)c3nc(=O)c5c(Br)cccc5n43)CC2)NC(=O)[C@@H]2C[C@@H](O)CN2C(=O)[C@@H](NC(=O)C23CCCCC2C3)C(C)(C)C)cc1 (some centres unmarked) [Compound 42bh]
3	6	Cc1ncsc1-c1ccc([C@H](CCCN2CCC(c3ccc4c(c3)n(C3CCCC3)c3nc(=O)c5c(N)cccc5n43)CC2)NC(=O)[C@@H]2C[C@@H](O)CN2C(=O)[C@@H](NC(=O)C2(N3CCCC3)CC2)C(C)(C)C)cc1 [Compound 42bi]
8	83	CC(=O)O[C@@H]1C[C@@H](C(=O)N[C@@H](CCCCCN2CCC(c3ccc4c(c3)n(C3CCCC3)c3nc(=O)c5c(Br)cccc5n43)CC2)c2ccc(-c3scnc3C)cc2)N(C(=O)[C@@H](NC(=O)C2(F)CC2)C(C)(C)C)C1 [Compound 42bj]
3	60	CCCCC(=O)O[C@@H]1C[C@@H](C(=O)N[C@@H](CC[C@H](C)CCN2CCC(c3ccc4c(c3)n(C3CCCC3)c3nc(=O)c5c(Br)cccc5n43)CC2)c2ccc(-c3scnc3C)cc2)N(C(=O)[C@@H](NC(=O)C2(F)CC2)C(C)(C)C)C1 [Compound 42bk]
0.7	11	Cc1ncsc1-c1ccc([C@H](CCCCCN2CCC(c3ccc4c(c3)n(C3CCCC3)c3nc(=O)c5c(Br)cccc5n43)CC2)NC(=O)[C@@H]2C[C@@H](O)CN2C(=O)[C@@H](NC(=O)C2(F)CC2)C(C)(C)C2CC2)cc1 [Compound 42c]
0.7	7	Cc1ncsc1-c1ccc([C@H](CC[C@@H](C)CCN2CCC(c3ccc4c(c3)n(C3CCCC3)c3nc(=O)c5c(Br)cccc5n43)CC2)NC(=O)[C@@H]2C[C@@H](O)CN2C(=O)[C@@H](NC(=O)C2(F)CC2)C(C)(C)C)cc1 [Compound 42d]
4.1	80	Cc1ncsc1-c1ccc([C@H](CCC(O)CCN2CCC(c3ccc4c(c3)n(C3CCCC3)c3nc(=O)c5c(Br)cccc5n43)CC2)NC(=O)[C@@H]2C[C@@H](O)CN2C(=O)[C@@H](NC(=O)C2(F)CC2)C(C)(C)C)cc1 (some centres unmarked) [Compound 42e]
2	46	Cc1ncsc1-c1ccc([C@H](CCCCCN2CCC(c3ccc4c(c3)n([C@H]3CC[C@@H](O)C3)c3nc(=O)c5c(Br)cccc5n43)CC2)NC(=O)[C@@H]2C[C@@H](O)CN2C(=O)[C@@H](NC(=O)C2(F)CC2)C(C)(C)C)cc1 [Compound 42f]
3	40	Cc1ncsc1-c1ccc([C@H](CCC(C)(C)CCN2CCC(c3ccc4c(c3)n(C3CCCC3)c3nc(=O)c5c(Br)cccc5n43)CC2)NC(=O)[C@@H]2C[C@@H](O)CN2C(=O)[C@@H](NC(=O)C2(F)CC2)C(C)(C)C)cc1 [Compound 42g]
0.3	4	Cc1ncsc1-c1ccc([C@H](CCCCCN2CCC(c3ccc4c(c3)n(C3CCCC3)c3nc(=O)c5c(Br)cccc5n43)CC2)NC(=O)[C@@H]2C[C@@H](O)CN2C(=O)[C@@H](NC(=O)C2(F)CC2)C(C)(C)C)cc1 [Compound 42h]
